Source: patent US7442783B2, “Natural IgM antibodies and inhibitors thereof” (The CBR Institute for Biomedical Research, Inc., priority 2004, dated 2008)
“And” between values parts separate entries of the source, which are not always exact repeats. Equal entries are not always repeated. Each block holds one molecule with its values, some of them ahead of it.

How the values were obtained:
RAG-1^−/− mice [1] = test: Intestinal RI model in reconstituted RAG-1^−/− mice (histopathology, immunohistochemistry); format: in vivo, mouse; conditions: for mean pathology score: 40 min ischemia, 3 h reperfusion
Description: (§1) Surgical protocol for RI was performed as previously described (Zhang et al. (2004) PNAS USA 101:3886-91). […] After 40 minutes of ischemia, the microclip was removed, and reperfusion of the mesenteric vasculature was confirmed by the return of pulsation to the vascular arcade and a change to pink color. The incision was closed, and all animals kept warm for 3 hours. Reconstituted RAG-1^−/− animals received either IgM mixed with peptide or saline in 0.2 ml volume intravenously 30 min before the initial laparotomy. WT animals were treated with saline or peptide i.v. 5 minutes prior to reperfusion. At the end of reperfusion, the ischemic segment of the jejunum was harvested and the central 4 cm was cut for pathological analysis.
(§2) Cryostat sections of intestinal tissues were stained by hematoxylin and eosin (H&E) and examined by light microscopy for mucosal damage. Pathology score was assessed based on procedure by Chiu (Chiu et al, Arch Surg 101: 484-488, 1970; Chiu, et al, Arch Surg 101: 478-483, 1970) that included direct inspection of all microvilli over a 4 cm stretch of jejuneum as described. Zhang et al. (2004) PNAS USA 101:3886-91. For immuno-fluorescence, cryosections fixed with 4% (w/v) paraformaldehyde were incubated for varying periods with either biotin-labeled anti-mouse IgM (Becton Dickinson, Calif.) followed by 1 hour with streptavidin-Alexa-568 (1:500 dilution, Molecular Probes, Oreg.). C4 deposition was detected by staining with FITC-labeled rabbit anti-huC4c (DAKO, Colo.), followed by anti-rabbit-Alexa 488 (Molecular Probes, Oreg.). The specificity of anti-C4c staining was confirmed by staining serial sections with biotin-labeled anti-mouse C4 for 1 hour followed by streptavidin-FITC (Becton Dickinson, Calif.). C3 deposition was detected by treating with FITC-labeled anti-C3 (DAKO, Colo.). Sections were mounted in Anti-fade Mounting Medium with DAPI (Molecular Probes, Oreg.).

WT mice = test: Intestinal RI model in wild type mice (histopathology, immunohistochemistry); format: in vivo, mouse; conditions: peptide i.v. five minutes prior to reperfusion
Description: as §1, §2

IgM^CM-22 [2] = test: SPR analysis of peptide binding to IgM^CM-22-coupled surface; parameters: species or system mouse; conditions: calculated from steady-state response levels, 1:1 Langmuir fit; mean±SD, n=2; 25° C.
Description: FIG. 9A is a graph showing the surface plasmon resonance for the self-peptide N2. Binding isotherms for samples of the self-peptide N2 with concentration from 10.5 μM to 120 μM injected over the IgM^CM-22-coupled surface.
FIG. 9B is a graph showing the surface plasmon resonance for a control peptide. Binding isotherm for a same-length, random-sequence control peptide (AGCMPYVRIPTA; SEQ ID NO: 62), injected at a concentration of 117 μM over the IgM^CM-22-coupled surface.
(§3) An IgM (IgM^CM-22 or IgM^CM-31) antibody was immobilized by amine coupling in a BiaCore SPR CM5™ chip flowcell at a density of 33,400 response units (RU) ˜33 ng/mm^2 as described. Vorup-Jensen et al, PNAS USA 100: 1873-1878, 2003. Briefly, a reference flow cell was prepared by coupling of ethanolamine-HCl. Peptides, diluted in PBS running buffer, were flowed separately over the IgM-coupled surface and the reference at a rate of 10 μl/min at 25° C. and with the data collection rate at 10 Hz. […] Binding isotherms were derived by subtracting the response in the reference cell from the response of the IgM-coupled surface. Following each run, the surface was regenerated by injecting 40 μl 0.05% (v/v) polyoxyethylenesorbitan monolaureate/PBS.

IgM^CM-31 = test: SPR analysis of peptide binding to control IgM^CM-31-coupled surface; parameters: species or system mouse; conditions: peptide injected at 120 μM
Description: FIG. 9D is a graph showing the binding isotherm for the injection of the self-peptide N2 at 120 μM over a surface coupled with the control IgM^CM-31.
as §3

IgM^CM-22 [3] = test: ELISA screening of M-13 phage clones on IgM^CM-22-coated plate; format: binding, mouse; conditions: five phage clones compared, ELISA (FIG. 6A)
Excerpt: FIG. 6A is a graph showing the ELISA screening of M-13 phage-display library for IgM^CM-22-specific peptides. Symbols: […]-P1 clone; X-P2 clone, ∘-P7 clone; ⋄-P8 clone. The plate was coated with a solution of IgM^CM-22 before addition of varying concentrations of phage-clones. The results are representative of at least three independent experiments.
A 12-mer M-13 phage display library (New England Biolab, Mass.) was screened by 4 rounds with MBL-beads coated with IgM^CM-22 and 2 rounds with IgM^CM-75 according to the manufacturer's recommendation. Phage clones were selected from the enriched pool and the nucleotide sequence of the relevant phage gene determined for at least ten clones. […]
ELISA was performed as described earlier (Zhang et al. (2004) PNAS USA 101:3886-91). Briefly, IgM binding to phage or phage-specific peptides was determined by coating a 96-well plate with saturating amounts of antigen. […] Binding of IgM to NMHC-II was determined by culturing 96-well plates previously coated with specific rabbit antibody (NMHC-II A & B; Covance Research Products; NMHC-II C a gift from Dr. Adelstein, NHLBI, NIH, Bethesda, Md.) or pan-myosin Hc (Sigma, Mo.) with intestinal lysates prepared from IgM^CM-22 reconstituted RAG-1^−/− mice either sham treated or treated for ischemia as described (Zhang et al. (2004) PNAS USA 101:3886-91). […]

IgM^CM-22 [4] = test: ELISA: synthetic peptide P8 inhibits IgM^CM-22 binding of phage clone P8; parameters: species or system mouse; conditions: peptide added to IgM^CM-22-coated plate prior to 5×10^11 PFU phage; estimated; read-out: concentration of P8 peptide yielding 50% inhibition of phage P8 binding to IgM^CM-22
Description: FIG. 6B is a bar graph showing that the synthetic peptide P8 inhibits IgM^CM-22 binding of phage clone P8. ELISA was performed with varying concentrations of the synthetic peptide P8 added to the IgM^CM-22-coated plate prior to the addition of 5×10^11 PFU phage. The results are representative of at least three independent experiments.
(§4) ELISA was performed as described earlier (Zhang et al. (2004) PNAS USA 101:3886-91). Briefly, IgM binding to phage or phage-specific peptides was determined by coating a 96-well plate with saturating amounts of antigen. Subsequent to blocking, IgM was added (1 or 10 μg/ml) for 2 hr at 37° C. Plates were washed and then developed with alkaline phosphatase-labeled goat anti-mouse IgM (Sigma, MO). Binding of IgM to NMHC-II was determined by culturing 96-well plates previously coated with specific rabbit antibody (NMHC-II A & B; Covance Research Products; NMHC-II C a gift from Dr. Adelstein, NHLBI, NIH, Bethesda, Md.) or pan-myosin Hc (Sigma, Mo.) with intestinal lysates prepared from IgM^CM-22 reconstituted RAG-1^−/− mice either sham treated or treated for ischemia as described (Zhang et al. (2004) PNAS USA 101:3886-91). Lysates were prepared as described for immune precipitation (see below). Alkaline-phosphatase labeled goat anti-mouse IgM (Sigma, Mo.) was then used to detect bound IgM. […]

IgM^CM-22 [5] = test: Titration of peptide with IgM^CM-22; parameters: species or system mouse; conditions: previous titration of peptide with IgM^CM-22
[6] = system: antibody deficient mice (RAG-1); test: Intestinal I/R injury in antibody-deficient (RAG-1) mice reconstituted with hybridoma IgM; format: in vivo, mouse; conditions: IgM injected intravenously 30 minutes before initial laparotomy, permeability index (FIG. 4)
Description: IgM or saline was injected intravenously 30 minutes before initial laparotomy. At the end of reperfusion, blood is obtained and permeability index is calculated as the ratio of ^125I counts of dried intestine versus that of blood. Values represent means±standard error; n equals the numbers of mice used in experimental groups. 1=WT plus normal saline; 2=RAG plus normal saline; 3=RAG plus IgM hybridoma CM-22; 4=WT sham control.
This finding was unexpected because they have a normal level of IgM in their blood. These findings led to the hypothesis that a special population of B cells termed B-1 cells are responsible for secreting the pathogenic IgM. […] To identify the specific antibody or antibodies responsible for injury, a panel of hybridoma clones were constructed from an enriched pool of peritoneal B-1 cells harvested from normal mice. The general approach for preparing hybridomas from enriched fraction of peritoneal cells includes harvesting peritoneal cells from mice treated 7 days earlier with IL-10 and subsequently enriched for CD23 negative B cells by negative selection with magnetic beads. Enriched B cells are analyzed by FACS following staining with IgM, Mac-1 and CD23 specific Mab. […]
Twenty-two IgM-secreting hybridoma clones were analyzed by pooling an equal amount of IgM product from each of the clones. […]

P8 peptide = test: ELISA: IgM binding to P8 peptide-coated plates; conditions: plate coated with 50 μg/ml P8
Description: FIG. 6C is a bar graph showing specific binding of the P8 peptide to IgM^CM-22. The ELISA plates were coated with 50 μg/ml solution of P8 peptide, followed by addition of IgM^CM-22 or IgM^CM-75 at 1 or 10 μg/ml. IgM binding was detected with a biotinylated rat anti-mouse IgM followed by streptavidin-phosphatase and color reaction. The results are representative of at least three independent experiments.
as §4

[7] = system: non-muscle myosin heavy chain-II (NMHC-II) isoforms A, B and C; test: ELISA: IgM binding to captured NMHC-II from intestinal lysates; parameters: species or system mouse; conditions: NMHC captured from jejuneum lysates of RAG-1^−/− mice
Excerpt: FIG. 8B is a series of graphs showing results of in vitro binding assays of IgM^CM-22 to the isoforms of non-muscle myosin heavy chain-II (NMHC-II). ELISA plates were coated with monoclonal antibodies for 3 different isoforms of NMHC-II (upper left: isoform A, upper right: isoform B, lower left: isoform C and lower right: anti-pan myosin antibody). Bound myosin heavy chain from intestinal lysates was detected by IgM^CM-22 or IgM^CM-31. The results represent mean±standard error of OD 405 nm units and are representative of triplicate samples.
as §4, with “101:3886-91).” for “101:3886-91). Lysates were prepared as described for immune precipitation (see below). Alkaline-phosphatase labeled goat anti-mouse IgM (Sigma, Mo.) was then used to detect bound IgM.”

RAG-1^−/− mice [8] = conditions: IgM-reconstituted sham controls (no ischemia); Zhang et al. (2004); cited from earlier work
[9] = peptide mixed with IgM^CM-22 prior to injection in RAG-1^−/− mice

Kd (IgM^CM-22 [2]): 123 ± 61 µM
SPR binding to IgM^CM-31-coupled surface (IgM^CM-31): no binding was observed
Molecule: LMKNMDPLNDNV [N2]
IgM and complement deposition in reperfused jejuneum (immunohistology) (RAG-1^−/− mice [1]; [9]): no deposition of IgM and complement
mean pathology score (RAG-1^−/− mice [1]; [9]): 13±8
IgM and complement deposition in reperfused tissues (immunohistology) (WT mice): blocked
mean pathology score (WT mice): 8±5

relative binding of phage clone to IgM^CM-22 (IgM^CM-22 [3]): bound with the highest efficiency
IC50 (IgM^CM-22 [4]): ~10 µM
Molecule: NGNNVNGNRNNN [P8]
IgM and complement deposition in reperfused jejuneum (immunohistology) (RAG-1^−/− mice [1]; [9]): no evidence of IgM or complement binding
mean pathology score (RAG-1^−/− mice [1]; [9]): 6±3
optimal concentration sufficient to block 50-100 μg of IgM^CM-22 (0.1-0.2 μM) (IgM^CM-22 [5]): 10 µM
IgM and complement deposition in reperfused tissues (immunohistology) (WT mice): no apparent deposits of IgM or complement
mean pathology score (WT mice): 5.+−.3

IgM binding to P8 peptide-coated plate (P8 peptide; IgM at 1 μg/ml): neither IgM bound above background
IgM binding to P8 peptide-coated plate (P8 peptide; IgM at 10 μg/ml): significantly more
binding of IgM to all three isoforms of NMHC-II (ELISA) [7]: Above background binding
B1: IgM^CM-22: natural IgM produced from hybridoma PTA-3507; heavy chain SEQ ID NO: 2, light chain SEQ ID NO: 8 (antibody, listed as Mus musculus)
heavy: QVQLQQSGAELVKPGASVKISCKASGYAFSSYWMNWVKQRPGKGLEWIGQIYPGDGDTNYNGKFKGKATLTADKSSSTAYMQLSSLTSEDSAVYFCAREDYYGSDWYFDVWGTGTTVTVSSGKLAFFFLHIPF
light: IVMTQSAASLAVSLGQRATISYRASKSVSTSGYSYMHWNQQKPGQPPRLLIYLVSNLESGVPARFSGSGSGTDFTLNIHPVEEEDAATYYCQHIRELTRSEGGPSWK
restoration of I/R injury [6]: restored injury
IgM and complement C4 and C3 deposition in reperfused jejuneum (immunohistology) (RAG-1^−/− mice [1]; RAG-1^−/− mice reconstituted with the IgM alone, following RI): co-localization of IgM and complement C4 and C3 within the microvilli
mean pathology score (RAG-1^−/− mice [1]; RAG-1^−/− mice reconstituted with the antibody alone): 31±13 and 31±10
IgM and complement deposition (immunohistology) (RAG-1^−/− mice [8]): No binding of IgM or complement
